# Data: patent US5100591A, “Process for preparing lipid microparticles” (Medgenix Group S.A., priority 1989, dated 1992)
# Columns and labels:
# [1] = Stability of amphotericin B solutions by HPLC analysis; details: for Stability in methanol solution in acid medium: topical grade
# Procedure: The stability of the amphotericin B solutions was recorded by HPLC analysis using a reversed-phase column (C18 Bondapak, 25×0.5 cm, Waters Associates). A CH3 CN/10 mM acetate buffer, pH 7, system (39:61) was used as eluent. UV recording was performed at 404 and 362 nm. The flow rate was 2 ml/min. The retention time (RT) of amphotericin B is 9.5 minutes. Results were expressed as the percentage of the peak area.
# [2] = acetic acid and ammonia NH3 in methanol, two equivalents, 5 mg/ml in CH3OH
compound,measurement,setting,value
C[C@@H]1[C@H](O)[C@@H](C)/C=C/C=C/C=C/C=C/C=C/C=C/C=C/[C@H](O[C@@H]2O[C@H](C)[C@@H](O)[C@H](N)[C@@H]2O)C[C@@H]2O[C@](O)(C[C@@H](O)C[C@@H](O)[C@H](O)CC[C@@H](O)C[C@@H](O)CC(=O)O[C@H]1C)C[C@H](O)[C@H]2C(=O)O [amphotericin B],solubility,"physchem; ch3oh + 1.0 eq. hcl, organic solvent or mixture, Solubility of i.v. grade amphotericin B",5000 µg/mL
same,solubility,"physchem; ch3oh + 1.0 eq. naoh, organic solvent or mixture, Solubility of i.v. grade amphotericin B",5000 µg/mL
same,solubility,"physchem; ch3oh + 1.5 eq. hcl, organic solvent or mixture, Solubility of topical grade amphotericin B",5000 µg/mL
same,solubility,"physchem; ch3oh + 1.5 eq. naoh, organic solvent or mixture, Solubility of topical grade amphotericin B",5000 µg/mL
same,solubility,"physchem; ch3oh, acid, organic solvent or mixture, Solubility of amphotericin B",3000 to 5000 µg/mL
same,solubility,"physchem; ch3oh, basic, organic solvent or mixture, Solubility of amphotericin B",2000 to 3000 µg/mL
same,solubility,"physchem; ch3oh, neutral, organic solvent or mixture, Solubility of amphotericin B",200 to 400 µg/mL
same,solubility,"physchem; ch3oh, organic solvent or mixture, Solubility of i.v. grade amphotericin B",150 µg/mL
same,solubility,"physchem; ch3oh, organic solvent or mixture, Solubility of topical grade amphotericin B",130 µg/mL
same,solubility,"physchem; dimethylacetamide, organic solvent or mixture, Solubility of amphotericin B in DMA",6000 µg/mL
same,solubility,"physchem; dimethylformamide, acid, organic solvent or mixture, Solubility of amphotericin B",60000 to 80000 µg/mL
same,solubility,"physchem; dimethylformamide, neutral, organic solvent or mixture, Solubility of amphotericin B",2000 to 4000 µg/mL
same,solubility,"physchem; h2o, acid, Solubility of amphotericin B",100 µg/mL
same,solubility,"physchem; h2o, basic, Solubility of amphotericin B",100 µg/mL
same,Stability of neutral CH3OH solution,"[1]; 0.1 mg/ml, 4° C.",stable for several days
same,Effect of neutralization with methanolic HCl on stability,[1]; basic CH3OH solution,no effect on the stability
same,Effect of addition of an excess of NaOH on stability,"[1]; excess of NaOH, methanolic solution",does not affect the stability
same,Degradation in an acid medium,"[1]; i.v. grade, methanol, one equivalent HCl, concentration greater than 2 mg/ml",increases greatly
same,Stability in methanolic NaOH solution,"[1]; i.v. grade, one equivalent NaOH, up to 5 mg/ml",good stability
same,Stability in methanol solution in acid medium,"[1]; 0.1 mg/ml, 1.5 eq. HCl",stable
same,Stability in methanol solution in acid medium,"[1]; 5 mg/ml, acid medium (HCl)",degraded
same,Dissolution of amphotericin B,[2],do not dissolve
